# Measured values taken from PMC3653948, “PDZ Domain-Mediated Interactions of G Protein-Coupled Receptors with Postsynaptic Density Protein 95: Quantitative Characterization of Interactions” (PLoS ONE, 2013).
# Entries after “also recorded” stand apart in the source; their conditions may differ. Like-named read-outs stand apart in the source and are kept apart here. Peptide text beside a SMILES is read from it.
# What was measured:
# PSD-95 PDZ3 = biological target: T1, PSD-95 PDZ3 (Homo sapiens, UniProt P78352); experiment: FP competition assay, PSD-95 PDZ3 (probe Cy5-CRIPT); type: binding
# T1 construct: made in house; host or cells: E. coli One Shot BL21 Star (DE3)
# Procedure: (§1) We used a competition set-up, where a constant concentration of isolated PSD-95 PDZ domain and a labeled reference ligand was titrated with unlabeled peptides from the GPCR C-tail library, typically within a 1–512 µM concentration range, and the resulting curves were fitted to obtain the IC50, which was used to calculate the K i (Figure 1). Three Cy5-labeled peptides with well-documented interactions with PSD-95 were used as reference ligands for the competition assay: Cy5-KIF1Bα was used for PDZ1 [20], Cy5-GluN2B (formerly known as NR2B) was used for PDZ2 and PDZ1-2 [21], and Cy5-CRIPT was used for PDZ3 [22] (Table S1). Competition with unlabeled versions of the reference ligands was used to validate the FP assay by comparison with the literature (Table S2).
# (§2) FP measurements were performed in black, flat bottom 384-well NBS microplates (Corning) on a Synergy H4 microplatereader (BioTek Instruments) equipped with a 620/40 nm excitation filter, a 680/30 nm emission filter, and a 660 nm dichroic mirror. Polarization values were corrected with blank samples and samples with fluorescent probe alone. At least 10 data points were measured for each curve, and each data point was measured in triplicate. 25 nM Cy5-labeled probe was used for each assay: Cy5-KIF1Bα for PDZ1, Cy5-GluN2B for PDZ2 and PDZ1-2, and Cy5-CRIPT for PDZ3. All FP measurements were performed in a buffer containing 10 mM HEPES pH 7.4, 150 mM NaCl, and 1% BSA and incubated at least 15 min at room temperature before reading. The signal was stable for more than an hour, showing that the reaction was at equilibrium.
# Saturation binding curves were used to determine the functionality of the PDZ domains by comparison with literature values and to calculate K i values from competition curves. Saturation binding curves were performed by mixing probe with a twofold dilution series of PDZ protein in a total volume of 30 µl. The K d was determined by fitting to a 1∶1 binding model: Y = Ymax × X/(X+K d).
# (§3) For the competition binding curves, probe was mixed with a constant concentration of PDZ protein corresponding to the K d and a twofold dilution series of unlabeled peptide in a total volume of 30 µl. The baseline was determined using a sample containing only probe. The IC50 was determined by fitting to a 1∶1 binding model: Y = Ymax − Ymax × X/(X+IC50). The K i was calculated from the IC50 and from the K d for the interaction between the PDZ protein and the probe as described previously.
# PSD-95 PDZ1 = biological target: T2, PSD-95 PDZ1 (Homo sapiens, UniProt P78352); experiment: FP competition assay, PSD-95 PDZ1 (probe Cy5-KIF1Bα); type: binding
# T2 construct: PSD-95 PDZ1 (aa 61–151); made in house; host or cells: E. coli One Shot BL21 Star (DE3)
# Procedure: (§4) FP measurements were performed in black, flat bottom 384-well NBS microplates (Corning) on a Synergy H4 microplatereader (BioTek Instruments) equipped with a 620/40 nm excitation filter, a 680/30 nm emission filter, and a 660 nm dichroic mirror. Polarization values were corrected with blank samples and samples with fluorescent probe alone. At least 10 data points were measured for each curve, and each data point was measured in triplicate. […] All FP measurements were performed in a buffer containing 10 mM HEPES pH 7.4, 150 mM NaCl, and 1% BSA and incubated at least 15 min at room temperature before reading. The signal was stable for more than an hour, showing that the reaction was at equilibrium.
# (§5) For the competition binding curves, probe was mixed with a constant concentration of PDZ protein corresponding to the K d and a twofold dilution series of unlabeled peptide in a total volume of 30 µl. The baseline was determined using a sample containing only probe. The IC50 was determined by fitting to a 1∶1 binding model: Y = Ymax − Ymax × X/(X+IC50). The K i was calculated from the IC50 and from the K d for the interaction between the PDZ protein and the probe as described previously [38].
# PSD-95 PDZ2 = biological target: T3, PSD-95 PDZ2 (Homo sapiens, UniProt P78352); experiment: FP competition assay, PSD-95 PDZ2 (probe Cy5-GluN2B); type: binding; settings: read-out: K i PDZ2
# T3 construct: PDZ2 (aa 155–249); made in house; host or cells: E. coli One Shot BL21 Star (DE3)
# Procedure: as §4, §5
# PSD-95 = experiment: FP competition assay, PSD-95 PDZ domains overall (strongest binding domain / non-binders); settings: FP competition with the isolated PDZ domains, peptide typically 1–512 µM
# Procedure: as §1, §2, §3
# [1] = 25 nM Cy5-KIF1Bα, 10 mM HEPES pH 7.4, 150 mM NaCl, 1% BSA, room temperature, at least 15 min, Ki ± fitting error, read-out: K i PDZ1
Compound,Interaction with PSD-95 using fluorescence polarization (PSD-95),other results
CC(C)[C@H](NC(=O)[C@H](CS)NC(=O)[C@H](CO)NC(=O)[C@@H](NC(=O)[C@H](CCCCN)NC(=O)[C@H](CCC(=O)O)NC(=O)[C@H](CC(N)=O)NC(=O)[C@@H](NC(=O)CNC(=O)[C@H](CC(=O)O)NC(=O)[C@H](CCCNC(=N)N)NC(=O)[C@H](CC(=O)O)NC(=O)[C@H](CC(=O)O)NC(=O)[C@@H](N)Cc1ccc(O)cc1)C(C)C)C(C)C)C(=O)O [5-HTR2A] (H-YDDRDGVNEKVSCV-OH),–,Ki (PSD-95 PDZ3; read-out: K i PDZ3): > 1000 µM; Ki (PSD-95 PDZ1; [1]): 160 ± 4 µM; Ki (PSD-95 PDZ2): 46 ± 0.2 µM
CC(C)C[C@H](NC(=O)[C@@H](NC(=O)[C@@H](NC(=O)[C@H](CO)NC(=O)[C@@H](NC(=O)[C@H](Cc1c[nH]cn1)NC(=O)CNC(=O)[C@H](CO)NC(=O)[C@H](CO)NC(=O)[C@H](CO)NC(=O)[C@H](CCCNC(=N)N)NC(=O)[C@H](CC(=O)O)NC(=O)[C@H](CC(=O)O)NC(=O)[C@@H](N)Cc1ccc(O)cc1)[C@@H](C)O)[C@@H](C)O)[C@@H](C)O)C(=O)O [CXCR2] (H-YDDRSSSGHTSTTL-OH),–,"Ki (PSD-95 PDZ3; read-out: K i PDZ3): 370 ± 39 µM; Ki (PSD-95 PDZ1; 25 nM Cy5-KIF1Bα, 10 mM HEPES pH 7.4, 150 mM NaCl, 1% BSA, room temperature, mean Ki ± SEM from two or more independent experiments, read-out: K i PDZ1): 280 ± 25 µM; Ki (PSD-95 PDZ2): 370 ± 53 µM"
"CC[C@H](C)[C@H](NC(=O)[C@H](CO)NC(=O)[C@H](CO)NC(=O)[C@H](CC(C)C)NC(=O)[C@H](CCCCN)NC(=O)[C@H](CCC(=O)O)NC(=O)[C@@H](N)Cc1ccc(O)cc1)C(=O)N[C@@H](CCC(=O)O)C(=O)N[C@@H](CO)C(=O)N[C@@H](CC(=O)O)C(=O)N[C@H](C(=O)O)C(C)C [GluN2B, reference compound] (H-YEKLSSIESDV-OH)",–,"Ki (PSD-95 PDZ3; FP competition, unlabeled reference ligand vs Cy5-CRIPT, Ki ± fitting error, read-out: Ki PDZ3 Result (Table S2)): > 1000 µM; Ki (PSD-95 PDZ1; unlabeled reference ligand vs Cy5-KIF1Bα, mean Ki ± SEM from two or more independent experiments, read-out: Ki PDZ1 Result (Table S2)): 29 ± 2.5 µM"
CC[C@H](C)[C@H](NC(=O)[C@H](CO)NC(=O)[C@@H](NC(=O)[C@H](CCC(N)=O)NC(=O)[C@H](CC(C)C)NC(=O)[C@H](CC(=O)O)NC(=O)CNC(=O)[C@H](CC(N)=O)NC(=O)[C@H](CC(C)C)NC(=O)[C@H](CC(C)C)NC(=O)[C@H](CCCNC(=N)N)NC(=O)[C@H](CC(=O)O)NC(=O)[C@H](CC(=O)O)NC(=O)[C@@H](N)Cc1ccc(O)cc1)[C@@H](C)O)C(=O)O [SSTR2A] (H-YDDRLLNGDLQTSI-OH),–,Ki (PSD-95 PDZ3; read-out: K i PDZ3): > 1000 µM; Ki (PSD-95 PDZ1; [1]): 620 ± 106 µM; Ki (PSD-95 PDZ2): 230 ± 2 µM
CC[C@H](C)[C@H](NC(=O)[C@H](CCCNC(=N)N)NC(=O)[C@H](CCSC)NC(=O)[C@@H](NC(=O)[C@H](CO)NC(=O)[C@H](CO)NC(=O)[C@H](CCCCN)NC(=O)[C@H](CCCNC(=N)N)NC(=O)[C@H](CC(=O)O)NC(=O)[C@@H](N)CC(=O)O)[C@@H](C)O)C(=O)N[C@@H](CO)C(=O)N[C@@H](Cc1ccc(O)cc1)C(=O)N[C@@H](CC(C)C)C(=O)O [SSTR3] (H-DDRKSSTMRISYL-OH),–,"Ki (PSD-95 PDZ3; read-out: K i PDZ3): 280 ± 5 µM; Ki (PSD-95 PDZ1; [1]): 610 ± 125 µM; Ki (PSD-95 PDZ1; receptors binding to PDZ1 but not to PDZ2, read-out: K i PDZ1): > 600 µM; Ki (PSD-95 PDZ2): > 1000 µM"
CC(C)C[C@H](NC(=O)[C@H](CC(C)C)NC(=O)[C@H](CO)NC(=O)[C@H](CC(=O)O)NC(=O)[C@H](CC(N)=O)NC(=O)[C@@H](NC(=O)[C@H](CO)NC(=O)[C@H](CS)NC(=O)[C@H](CC(N)=O)NC(=O)[C@H](CCCNC(=N)N)NC(=O)[C@H](CCCNC(=N)N)NC(=O)[C@H](CC(=O)O)NC(=O)[C@H](CC(=O)O)NC(=O)[C@@H](N)Cc1ccc(O)cc1)[C@@H](C)O)C(=O)O [β2AR] (H-YDDRRNCSTNDSLL-OH),–,Ki (PSD-95 PDZ3; read-out: K i PDZ3): > 1000 µM; Ki (PSD-95 PDZ1; [1]): > 1000 µM
"DRTNHQVRSL [μOR-1A, synthetic peptide, C-terminal 10 aa of human µOR-1A with N-terminal YDDR/DDR linker]",not to interact,–
"EFKQNGDTSL [P2Y1, synthetic peptide, C-terminal 10 aa of human P2Y1 with N-terminal YDDR/DDR linker]",not to interact,–
"EVVDSTTSSL [mGlu2, synthetic peptide, C-terminal 10 aa of human mGlu2 with N-terminal YDDR/DDR linker]",not to interact,–
"GHPLMDSTL [LPA2, synthetic C-tail peptide of human LPA2 with N-terminal YDDR/DDR linker]",not to interact,–
"GVQPALGVGL [A2B, synthetic peptide, C-terminal 10 aa of human adenosine A2B receptor with N-terminal YDDR/DDR linker]",not to interact,–
"NDPESLESCF [5-HTR4(a), synthetic peptide, C-terminal 10 aa of human 5-HTR4(a) with N-terminal YDDR/DDR linker]",not to interact,–
"QRERRQKSDW [μOR-1B2, synthetic peptide, C-terminal 10 aa of human µOR-1B2 with N-terminal YDDR/DDR linker]",not to interact,–
"QSPFPFPGRV [μOR-1B5, synthetic peptide, C-terminal 10 aa of human µOR-1B5 with N-terminal YDDR/DDR linker]",not to interact,–
"RDIDGMNKPV [κOR, synthetic peptide, C-terminal 10 aa of human κ opioid receptor (no PDZ motif) with N-terminal YDDR/DDR linker]",not to interact; also recorded: no interaction,–
"RDYTQSSSSL [mGlu5(b), synthetic peptide, C-terminal 10 aa of human mGlu5(b) with N-terminal YDDR/DDR linker]",not to interact,–
"SDGPGGGAAA [δOR, synthetic peptide, C-terminal 10 aa of human δ opioid receptor with N-terminal YDDR/DDR linker]",not to interact,–
"TGEHEVSTGL [CCR5 Mouse, synthetic peptide, C-terminal 10 aa of mouse CCR5 with N-terminal YDDR/DDR linker]",not to interact,–
"TGEQEISVGL [CCR5 Human, synthetic peptide, C-terminal 10 aa of human CCR5 with N-terminal YDDR/DDR linker]",not to interact,–

# The next lines start with results.
Interaction with PSD-95 using fluorescence polarization (PSD-95),Compound,other results
not to interact,"ANGLMQTSKL [SSTR5, synthetic peptide, C-terminal 10 aa of human SSTR5 with N-terminal YDDR/DDR linker]",–
not to interact,"ESESSSFHSS [CXCR4, synthetic peptide, C-terminal 10 aa of human CXCR4 with N-terminal YDDR/DDR linker]",–
not to interact,"ETSEASYSGL [CXCR3, synthetic peptide, C-terminal 10 aa of human CXCR3 with N-terminal YDDR/DDR linker]",–
not to interact,"SENATSLTTF [CXCR5, synthetic peptide, C-terminal 10 aa of human CXCR5 with N-terminal YDDR/DDR linker]",–
not to interact,"SSSVNVSSNL [CXCR1, synthetic peptide, C-terminal 10 aa of human CXCR1 with N-terminal YDDR/DDR linker]",–
